Test results published in patent publication US20220056043A1, “NITROGEN-CONTAINING FUSED CYCLIC COMPOUND, PREPARATION METHOD THEREFOR AND USE THEREOF” (SICHUAN KELUN-BIOTECH BIOPHARMACEUTICAL CO., LTD., priority 2019, published 2022).
Where a name gives a salt, the structure may show the parent alone. Values belong to the compound of their own block, whether it stands above or below them.

Tests used:
hNLRP3 inflammasome = molecular target: T1, hNLRP3 inflammasome (Homo sapiens, UniProt Q96P20); test: Agonistic effect on the expression of IL-1β in THP-1 cells after PMA-induced differentiation (HTRF); assay type: cell-based; details: IL-1β level, PMA-differentiated THP-1 cells, 6 hours
T1 construct: endogenous in cells; host or cells: THP-1 cells, PMA-differentiated
T1 sequence (Q96P20 whole entry): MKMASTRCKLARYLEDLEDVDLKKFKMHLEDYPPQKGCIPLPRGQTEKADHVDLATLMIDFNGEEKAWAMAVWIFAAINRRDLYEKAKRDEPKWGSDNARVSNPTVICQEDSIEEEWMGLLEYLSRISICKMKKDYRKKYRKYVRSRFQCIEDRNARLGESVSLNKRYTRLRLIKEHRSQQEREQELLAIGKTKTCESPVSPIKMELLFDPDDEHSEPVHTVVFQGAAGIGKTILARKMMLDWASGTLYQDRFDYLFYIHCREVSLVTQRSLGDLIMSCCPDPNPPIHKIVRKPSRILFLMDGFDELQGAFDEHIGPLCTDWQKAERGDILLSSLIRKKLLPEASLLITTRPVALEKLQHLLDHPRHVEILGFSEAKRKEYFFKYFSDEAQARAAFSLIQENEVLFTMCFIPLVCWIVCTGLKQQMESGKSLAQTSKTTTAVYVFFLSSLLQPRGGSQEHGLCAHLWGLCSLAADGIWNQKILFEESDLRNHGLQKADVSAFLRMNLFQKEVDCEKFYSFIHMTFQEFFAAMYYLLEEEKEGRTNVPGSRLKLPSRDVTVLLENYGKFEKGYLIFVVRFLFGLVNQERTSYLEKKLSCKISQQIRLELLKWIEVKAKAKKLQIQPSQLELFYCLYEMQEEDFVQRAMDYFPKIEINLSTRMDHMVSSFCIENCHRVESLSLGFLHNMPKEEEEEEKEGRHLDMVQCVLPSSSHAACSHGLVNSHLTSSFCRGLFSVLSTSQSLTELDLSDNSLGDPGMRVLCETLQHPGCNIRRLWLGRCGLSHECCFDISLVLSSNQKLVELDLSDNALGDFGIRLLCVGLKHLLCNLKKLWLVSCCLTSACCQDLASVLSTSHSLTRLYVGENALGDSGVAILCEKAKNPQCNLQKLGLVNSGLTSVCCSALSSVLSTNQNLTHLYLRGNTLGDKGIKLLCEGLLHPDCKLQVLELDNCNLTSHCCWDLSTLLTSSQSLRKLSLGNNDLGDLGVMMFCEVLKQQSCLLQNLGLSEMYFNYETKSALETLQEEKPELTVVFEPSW
Source text: Experimental Example 1: Agonistic Effect of the Compound of the Invention on the Expression of IL-1β in THP-1 Cells after PMA-Induced Differentiation
In this test, a HTRF (homogeneous time-resolved fluorescence) detection method was used to test the effect of the compound of the invention on the level of downstream cytokine IL-1β of NLRP3 to evaluate the agonistic effect of the compound on hNLRP3 inflammasome or hNLRP3 inflammasome pathway at a cellular level.
Reagent: RPMI 1640 (Hyclone); heat-inactivated FBS (fetal bovine serum) (Gibco); PMA (phorbol myristal acetate) (Beyotime)
Kit: IL-1β assay kit (CISIO)
1) THP-1 cells in a logarithmic growth phase were seeded in a T75 culture flask at a density of 5×10^5 cells/well, and cultured in a cell incubator at 37° C., 5% CO2 for 24 hours, and then 1 μM PMA was used to induce THP-1 suspension cells to become adherent macrophages. The medium was RPMI 1640 containing 10% heat-inactivated FBS and 0.05 mM β-mercaptoethanol.
2) The cells were induced and cultured for 24 hours. Then the adherent cells were trypsinized and centrifuged at 1000 rpm for 5 min. The supernatant was removed, and the cells were resuspended to a density of 2×10^6 cells/mL in RPMI 1640 medium containing 2% heat-inactivated FBS. 50 μL/well of cell resuspension was taken and spread on a 96-well plate such that the number of cells in each well was 1×10^5.
3) An appropriate amount of 10 mM DMSO solution of the compound to be tested was taken and diluted to a concentration of 2× test concentration with RPMI 1640 medium containing 2% heat-inactivated FBS. 50 μL/well of the dilution was added to the cells in the 96-well plate, and mixed well. The plate was placed in a cell incubator at 37° C., 5% CO2 for 6 hours. The supernatant was collected, and the level of IL-1β was measured in accordance with the instructions of the IL-1β detection kit.
4) EC50 was fitted by the GraphPad software log(agonist) vs. response—Variable slope four-parameter method.

[1] = tested on: CT26 mouse colon cancer subcutaneously transplanted tumor; test: In vivo efficacy on bilaterally inoculated CT26 mouse colon cancer subcutaneously transplanted tumor; details: for tumor volume (mm^3) day 0 / tumor volume (mm^3) day 14: twice a week for two weeks; for tumor volume (mm^3) day 0: day 0 (grouping); for tumor volume (mm^3) day 14 / TGI (%): day 14
Protocol: Experimental Example 7: In Vivo Efficacy of the Compounds of the Invention on Bilaterally Inoculated CT26 Mouse Colon Cancer Subcutaneously Transplanted Tumor
1) CT26 mouse colon cancer cells were cultured in a monolayer in vitro. When the cells were in a logarithmic growth phase, the cells were collected by centrifugation and counted.
2) 0.1 ml of PBS resuspension containing 3×10^5 CT26 cells was inoculated subcutaneously in the bilateral shoulder blades of mice respectively. When the bilateral scapular tumors of the mice grew to a volume of about 100 mm^3, the mice were randomly divided into 4 groups according to the bilateral tumor volumes, 8 mice in each group.
3) Compound 115s was injected into the tumor at the right scapular tumor of mice at 10 μg/time, 50 μg/time, and 250 μg/time, respectively, twice a week for two consecutive weeks. The bilateral tumor volumes and the body weight of the animals were measured.
4) Tumor inhibition rate, TGI (%), was calculated based on the tumor volumes to evaluate the inhibitory effect of Compound 115s on the growth of transplanted tumors in the mice. The calculation formula was: TGI (%)=100%−(TVt−TV0)/(CVt−CV0)×100%. When the tumor was regressing, the calculation formula was: TGI (%)=100%−(TVt−TV0)/TV0×100%, wherein TV0 was the average tumor volume of the tested compound group at the time of grouping; TVt was the average tumor volume of the tested compound group at the time of measurement on the t^th day; CV0 was the average tumor volume of the vehicle group at the time of grouping; and CVt was the average tumor volume of the vehicle group at the time of measurement on the t^th day. For statistical analysis of differences between the two groups, student's t-test was used to calculate the P value.

[2] = administration side, 10 μg/time intratumoral
[3] = administration side, 50 μg/time intratumoral
[4] = administration side, 250 μg/time intratumoral
[5] = non-administration side, 10 μg/time intratumoral (other side)
[6] = non-administration side, 50 μg/time intratumoral (other side)
[7] = non-administration side, 250 μg/time intratumoral (other side)

SMILES: Nc1cc(NC2CCCC2)c2sc(-c3ccn[nH]3)cc2n1 [Compound 110s, N^7-cyclopentyl-2-(1H-pyrazol-5-yl)thieno[3,2-b]pyridine-5,7-diamine hydrochloride]
EC50 (hNLRP3 inflammasome): 0.03 µM

SMILES: CC(C)(CO)CNc1cc(N)nc2cc(-c3ccn[nH]3)sc12.Cl [Compound 115s, 3-((5-amino-2-(1H-pyrazol-5-yl)thieno[3,2-b]pyridin-7-yl)amino)-2,2-dimethyl-1-propanol hydrochloride]
tumor volume (mm^3) day 0 [1, 2]: 74.63 ± 6.26 mm^3
tumor volume (mm^3) day 14 [1, 2]: 499.05 ± 211.28 mm^3
TGI (%) [1, 2]: 77.46%
tumor volume (mm^3) day 0 [1, 3]: 74.03 ± 4.69 mm^3
tumor volume (mm^3) day 14 [1, 3]: 61.66 ± 41.15 mm^3
TGI (%) [1, 3]: 144.99%
tumor volume (mm^3) day 0 [1, 4]: 74.00 ± 4.41 mm^3
tumor volume (mm^3) day 14 [1, 4]: 0.00 ± 0.00 mm^3
TGI (%) [1, 4]: 200.00%
tumor inhibitory effect on the non-administration side tumors ([1]; intratumoral injection at the other side, in words): significant dose-dependent tumor inhibitory effect
anti-tumor effect on the subcutaneous tumor at the administration side ([1]; intratumoral injection, compared with the vehicle group, in words): significant dose-dependent anti-tumor effect
tumor inhibitory effect on bilateral CT26 subcutaneous tumors ([1]; intratumoral injection, summary in words): significant dose-dependent tumor inhibitory effect
tumor volume (mm^3) day 0 [1, 5]: 85.21 ± 7.40 mm^3
tumor volume (mm^3) day 14 [1, 5]: 1269.99 ± 140.11 mm^3
TGI (%) ([1]; non-administration side, 10 μg/time): 38.94%
tumor volume (mm^3) day 0 [1, 6]: 85.31 ± 6.01 mm^3
tumor volume (mm^3) day 14 [1, 6]: 869.87 ± 99.95 mm^3
TGI (%) ([1]; non-administration side, 50 μg/time): 59.57%
tumor volume (mm^3) day 0 [1, 7]: 85.17 ± 6.28 mm^3
tumor volume (mm^3) day 14 [1, 7]: 462.85 ± 52.91 mm^3
TGI (%) ([1]; non-administration side, 250 μg/time): 80.54%

SMILES: Nc1cc(NCC(F)F)c2sc(-c3ccn[nH]3)cc2n1 [Compound 116s, N^7-(2,2-difluoroethyl)-2-(1H-pyrazol-5-yl)thieno[3,2-b]pyridine-5,7-diamine hydrochloride]
EC50 (hNLRP3 inflammasome): 0.05 µM

SMILES: Nc1cc(NCC2CCOCC2)c2sc(-c3ccn[nH]3)cc2n1 [Compound 120s, 2-(1H-pyrazol-5-yl)-N^7-((tetrahydro-2H-pyran-4-yl)methyl)thieno[3,2-b]pyridine-5,7-diamine hydrochloride]
EC50 (hNLRP3 inflammasome): 0.03 µM

Second part, the compound after the results:

EC50 (hNLRP3 inflammasome): 0.01 µM
SMILES: COCCNc1cc(N)nc2cc(-c3ccn[nH]3)sc12 [Compound 100s, N^7-(2-methoxyethyl)-2-(1H-pyrazol-5-yl)thieno[3,2-b]pyridine-5,7-diamine hydrochloride]

EC50 (hNLRP3 inflammasome): 0.01 µM
SMILES: CCC(CC)Nc1cc(N)nc2cc(-c3ccn[nH]3)sc12 [Compound 113s, N^7-(pent-3-yl)-2-(1H-pyrazol-5-yl)thieno[3,2-b]pyridine-5,7-diamine hydrochloride]
